# Activity calls are given as the source filed them.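 Rule for the calls: active = compounds giving half or more protection of infected cells from virus-caused growth loss, again on retest; inactive = the rest.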
# Tested on: CEM cells HIV-1 protection, formazan growth assay
# Assay: NCI AIDS Antiviral Assay
# Conditions: for IC50: measured here: growth of uninfected CEM cells
# In short: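 Category rules: moderately active means at least 50% protection on retest, and confirmed active means 100% protection reproducibly. The underlying data came from a formazan growth assay in HIV-1-infected CEM cells.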
Compound,EC50,IC50,outcome
CCOC(=O)N1CCC2C(=C(C)C(C)C3=C2C(=O)c2ccccc2C3=O)C1 (centres undefined),> 100 µM,> 100 µM,–
O=Nc1c(O)[nH]c(=O)[nH]c1=O,> 200 µM,> 200 µM,–
O=C1C=CC2=[N+]([O-])C(c3ccccc3)(c3ccccc3)C(=Nc3ccccc3)C2=C1,–,–,inactive
CCOC1CCC2C(CCC(/C=C/c3ccc(O)c4ncccc34)N2C)C1 (centres undefined),> 28.2 µM,4.9 µM,–
CCOC(=O)C(C(=O)OCC)P(=S)(S)c1ccccc1 (centres undefined),> 4370 µM,> 4370 µM,–
C=CCN1CCC(c2cc(C(=O)OCC)[nH]c2-c2cc(C)no2)C1=O (centres undefined),> 200 µM,> 200 µM,–
CCOC(=O)CCc1c(C)[nH]c2c(C)c3c([nH]c4ccc(Cl)cc43)c(C)c2c1=O,> 200 µM,11 µM,–
CSc1nc(C)c2c(n1)SCC2,> 200 µM,> 200 µM,–
COc1ccc(C(=O)/C(Br)=C/C(=O)O)cc1,> 427 µM,22.9 µM,–
CC(=O)Nc1ccc2c(C)c3c(nc2n1)[nH]c1ccccc13,> 200 µM,25.7 µM,–
O=C(NNC1=NCCCN1)Nc1ccccc1,> 200 µM,> 200 µM,–
N#CC1=C(S)N(C2OC(CO)C(O)C(O)C2O)C(c2ccccc2)=CC1c1ccccc1 (centres undefined),> 200 µM,51.3 µM,–
CCOC(=O)Nc1[nH]cc(-c2ccccc2)c1C#N,> 200 µM,> 200 µM,–
C[n+]1c(-c2ccc(/C=N\NC(=O)c3ccc(C(=O)N/N=C/c4ccc(-c5cn6ccsc6[n+]5C)cc4)cc3)cc2)cn2ccsc21,> 50.1 µM,0.501 µM,–
CC1=C(c2ccccc2)CON(c2ccccc2)C1,> 53.7 µM,> 53.7 µM,–
CC(=O)OCC1OC(n2cnc([N+](=O)[O-])c2Br)C(OC(C)=O)C1OC(C)=O (centres undefined),> 200 µM,11.7 µM,–
CC12SC3(C)SC(C)(S1)SC(C)(S2)S3,> 44.7 µM,33.1 µM,–
CC(=O)Nc1cc2c3c(c1)CCCN3CCC2,> 200 µM,39.8 µM,–
C=CCNC(=S)/N=C/c1c(O)[nH]c(=O)[nH]c1=O,–,–,inactive
COc1ccc(C2=NC(c3ccccc3)N3C(c4ccccc4)NC(c4ccccc4)C2C3c2ccccc2)cc1 (centres undefined),–,–,inactive
CN(C)c1ccc(/C=C/c2cc[n+]3cc(-c4ccccc4)sc3n2)cc1,> 1.51 µM,0.324 µM,–
C=CCN(N=O)C(=O)N(CCC)CCCCC(NC(C)=O)C(=O)NCc1ccccc1 (centres undefined),–,–,inactive

Compound,EC50,IC50,outcome
CCn1c(=O)c2c3ccc(OC(C)=O)cc3[nH]c2c2ccc(OC(C)=O)cc21,> 200 µM,26.9 µM,–
S=C1CC(c2ccccc2)Sc2cc(Cl)ccc2N1 (centres undefined),> 200 µM,1.26 µM,–
CC(C)(C)C1C=C(Sc2ccccc2)C(=O)O1 (centres undefined),> 120 µM,21.4 µM,–
CN(C)CCCNC(=O)c1cc(NC(=O)c2cc(NC(=O)c3cc(NC(=O)/C=C/C(=O)Nc4cn(C)c(C(=O)Nc5cn(C)c(C(=O)Nc6cn(C)c(C(=O)NCCCN(C)C)n6)n5)n4)cn3C)cn2C)cn1C,> 50.1 µM,> 50.1 µM,–
COC(=O)C(=O)C(C(=O)C=C(C)C)C(=O)C(=O)Nc1cccc(C(C)=O)c1 (centres undefined),> 251 µM,–,–
N#C/C(=C\c1cc2ccccc2c2ccccc12)c1ccccc1,> 12.3 µM,6.46 µM,–
CC1=C(O)C(=O)C(c2c(C)cc(C)c(Br)c2C)=C(O)C1=O,> 115 µM,15.5 µM,–
C=CCNC1=C(C(=O)OCC)C(=O)CO1,> 1170 µM,> 1170 µM,–
CCCCOC(=O)/C=C(\Br)C(=O)OCCCC,–,–,inactive
O=C(/C=C/c1ccccc1)c1cc(CN2CCOCC2)c(O)c(CN2CCOCC2)c1,> 200 µM,8.51 µM,–
S=C(c1c[nH]c2ccccc12)N1CCOCC1,> 200 µM,> 200 µM,–
Oc1ccccc1C=Nc1ccccc1N=Cc1ccccc1O,> 4.57 µM,> 4.57 µM,–
O=C1c2ccccc2-c2c3c(cc4ccnc1c24)OCO3,–,–,inactive
OC(c1ccccc1)C(F)(F)c1nc2ccccc2o1 (centres undefined),> 200 µM,> 200 µM,–
COc1cccc(NC(=O)/C(CS(=O)(=O)CCC(C(C)=O)C(C)=O)=N\NC(C)(C)C)c1,25.7 µM,550 µM,–
CCOC(=O)Cc1ccc2c(c1O)C(=O)c1c(ccc(CC(=O)OCC)c1O)C2=O,–,–,inactive
CC1=C(C(=O)OC2CC3CCC2(C)C3(C)C)C2Nc3ccccc3N(C)C2O1 (centres undefined),> 200 µM,6.46 µM,–
O=[As](O)(O)c1ccc(N=Nc2ccc(O)cc2)cc1,> 200 µM,138 µM,–
Cc1cc(C)cc(/C(C#N)=C/c2ccc(N(C)C)cc2)c1,> 2 µM,0.102 µM,–
c1ccc(OCC2CO2)c(OCC2CO2)c1 (centres undefined),> 1120 µM,3.98 µM,–
CCCCCCCCCC1CC(=O)Oc2cccc(O)c21 (centres undefined),> 25.1 µM,> 25.1 µM,–
O=S(=O)(O)c1cc(Cl)cc(Cc2cc(Cl)cc(S(=O)(=O)O)c2O)c1O,–,–,active

Compound,EC50,IC50,outcome
COC(=O)/C(=N\N)C(C(=O)C(=O)Nc1cccc([N+](=O)[O-])c1)c1nc2ccc(C(=O)c3ccccc3)cc2[nH]c1=O (centres undefined),> 64.6 µM,> 64.6 µM,–
Cc1ccc(OS(=O)(=O)c2ccccc2[N+](=O)[O-])cc1,–,–,active
CC(C)(C)[Si](C)(C)OCCc1ccccc1C1CC2(S(=O)(=O)c3ccccc3)ON1CC2S(=O)(=O)c1ccccc1 (centres undefined),> 16.2 µM,> 16.2 µM,–
CC(=O)Oc1ccc2c(C)cc(=O)oc2c1OC(C)=O,> 200 µM,69.2 µM,–
Cc1nsnc1CCO,> 1740 µM,> 1740 µM,–
C[C@]12CC[C@H]3[C@@H](CCC4=CC(=O)C=C[C@@]43O)[C@@H]1CCC2=O,> 200 µM,> 200 µM,–
COc1ccccc1/C=C1\CCc2ccccc2C1=O,> 27.5 µM,15.5 µM,–
COc1cc(-c2cc(CCC(=O)Nc3ccccc3[N+](=O)[O-])n(-c3ccc([N+](=O)[O-])cc3[N+](=O)[O-])n2)ccc1O,> 47.9 µM,> 47.9 µM,–
CC1=C(CC/C(C)=C/CCC2(C)CCC([C@H](C)C(=O)O)OO2)C(C)(C)CCC1 (some centres undefined) (tested in a mixture with another compound),–,–,inactive
O=C1NC(=O)C(Cc2ccccc2)(Cc2ccccc2)S1,> 17.4 µM,> 17.4 µM,–
Cc1nc2c(=O)n(C)c(=O)n(C)c2o1,> 200 µM,> 200 µM,–
CCOC(=O)c1ccc(/C(C#N)=C/c2ccc(Cl)cc2)cc1,> 200 µM,> 200 µM,–
CCOc1ccccc1N=C(NC(=O)CC)SC,> 18.2 µM,> 18.2 µM,–
O=S(=O)(c1ccccc1)[C@H]1[C@@H]2O[C@@H]2C[C@@H]1O,> 1050 µM,55 µM,–
Oc1c(Cl)cccc1SSc1cccc(Cl)c1O,> 200 µM,34.7 µM,–
CC(=O)c1cccn1/C=C(\OC(=O)OC(C)(C)C)c1ccc[nH]1,155 µM,162 µM,–
Cc1ccc(-n2cc(-c3ccc(Cl)cc3)c3c(NNC(=S)NCc4ccccc4)ncnc32)cc1,> 200 µM,7.59 µM,–
O=C(CCc1nnc2s/c(=C\c3ccc(Cl)cc3Cl)c(=O)n12)Nc1cc(Cl)c(Cl)cc1Cl,> 13.2 µM,> 13.2 µM,–
CC(C)(Oc1ccc(C(=O)c2ccc(Cl)cc2)cc1Cl)C(=O)N1CCN(c2ccccc2)CC1,> 20 µM,> 20 µM,–
COc1ccccc1/C=C(\C#N)C(=O)O,> 646 µM,251 µM,–
CNCCCC1c2ccccc2C=Cc2ccccc21,> 200 µM,37.2 µM,–

# — PubChem BioAssay AID179 (DTP/NCI, 2004)
